The conditions of data set [1]: cited from earlier work.
Another data set in a line: Solubility. The format is physicochemical. On the procedure: In water, the solubility of OVA is about one gram per ml of water. Methylated BSA (mBSA) has been used for immunization at a concentration of 50 mg/ml of 0.9% NaCl (Gent et al., 2014).
In water DexP (MW 516.4) is soluble at a concentration of 50 mg/ml (product information of Santa Cruz Biotechnology), in PBS at a concentration of at least 25 mg/ml (Anderson et al., 2010), and in 10 mM HEPES and 135 mM NaCl, pH 6.7, at a concentration of at least 50 mg/ml (Koning et al., 2006).

Data set [2] has as its system Langerhans cells (LCs) and dermal dendritic cells (DDCs). As to conditions: LCs and DDCs primed in vitro; cited from earlier work.
The conditions of data set [3]: humans; cited from earlier work.
For data set [4] the following is noted: rat, in vivo; cited from earlier work.
Data set [5] is described as follows: Release of calcitriol from PLGA-PEG-PLGA hydrogels. It is filed as physicochemical. As to the method:
The biodegradable PLGA-PEG-PLGA triblock polymer described in this example has a PLG/PEG weight ratio of 2.3 (70/30), and a lactide/glycolide molar ratio of approx. 15/1. Synthesis of the triblock copolymer is performed as described in Example 2.1. An aliquot of 20 μl of a stock solution of calcitriol (2 mg/ml; 4.8 mM) in absolute ethanol (Cayman/Biomol GmbH) is combined with 160 μl of 25% gel solution and 20 μl of 10×PBS (final concentration of calcitriol: 0.2 mg/ml or 0.48 mM; final concentration of ethanol: 10%).
The mixture of 5.1.1 is incubated for 2 minutes at 37° C. to induce gelling and overlayed with 200 μl of 1×PBS. At frequent time points the supernatant is removed by pipetting and stored at 4° C. The removed supernatant is replaced by fresh 200 μl of 1×PBS. Controls of the same concentration of calcitriol in 1×PBS without gel are incubated and sampled in parallel.
After 48 hours the samples and controls are analysed using a Vitamin D ELISA kit, according to the manual of the manufacturer (Euroimmun AG, Luebeck). The assay is applicable for the determination of 25-0H vitamin D3 and other hydroxylated vitamin D3 molecules, and sufficiently linear from 4.0 to 120 ng/ml of 25-0H vitamin D3 (cross reactivity with calcitriol: 45%).
In brief, 20 μl of diluted samples are mixed with 230 μl of sample buffer containing a biotin-labed 25-0H vitamin D derivative. 200 μl of the mixture are transferred to an ELISA well of an 8-well strip and incubated at room temperature for 2 hours. The wells are washed with 3×300 μl washing buffer. Peroxidase labelled steptavidin-conjugate (100 μl) is added and incubated for a further hour. The well is again washed 3× with 300 μl washing buffer. Tetramethyl-benzidine (100 μl) substrate solution is added and developed until sufficient coloring. The reaction is stopped by addition of 100 μl 0.5 M sulphuric acid and measured spectrometrically at 420 nm with reference 650 nm.

The test system of data set [6] is experimental autoimmune encephalomyelitis. As to conditions: i.p. 5 μg/kg every 2 days; cited from earlier work.

The source of these data is patent US20160338955A1, “ANTIGEN-SPECIFIC IMMUNOTHERAPY USING TOLERIZING LIPOSOMES” (PLS-Design GmbH, priority 2015, published 2016).

Values after ≈ are worked out from the molar mass of the structure shown. Where two headings read alike, the source gives them in different places.

As to `C=C1/C(=C\C=C2/CCC[C@]3(C)[C@@H]([C@H](C)CCCC(C)(C)O)CC[C@@H]23)C[C@@H](O)C[C@@H]1O` [calcitriol, 1α,25-dihydroxyvitamin D3], in data set [1] (in 0.2 ml normal saline), the “calcitriol dose that can be administered as single bolus i.p. injection” value is recorded as “up to 500 ng/mouse”. Besides, the “calcitriol dose above which mice become hypercalcemic on day 2 or 3” value in data set [1] (single bolus i.p.) is given as “higher than 750 ng/mouse”. The solubility is approximately 0.15 mg/mL (≈ 0.36 mM) in “Solubility” (1:5 ethanol:PBS, pH 7.2, aqueous with cosolvent or surfactant or cyclodextrin, read-out: solubility in a 1:5 solution of ethanol:PBS, pH 7.2) and approximately 50 mg/mL (≈ 120 mM) in the data set “Solubility” (ethanol, organic solvent or mixture, read-out: solubility in ethanol). Also, the “calcitriol concentration required to effectively induce FoxP3(+)Tregs and FoxP3(−)IL-10(+)TR1 cells” value in data set [2] was 2.5 µM. In addition, in data set [3], the “single oral dose relatively well tolerated (grade 1 to 2 adverse events)” value is “up to 165 μg”. The “serum level of calcitriol to be kept below to avoid toxicity” value in data set [4] is recorded as “below 250 ng/ml”. Further, the hydrogel-embedded calcitriol released entry in data set [5] (after 12 hours) is on record as “approx. 45%”; in data set [5] (after 24 hours) it was “approx. 65%”; in data set [5] (after 48 hours), “approx. 85%”; in data set [5] (within the first 2 hours) it was “approx. 15%”. The “treated mice in which appearance of paralysis was prevented” value in data set [6] is on record as 70%.
